Converted amounts (≈) assume the structure as drawn.

For assay [1], the system named is P388. In words: Cytotoxicity against mouse Adriamycin-resistant P388 cells. It counts as functional, cell-based.
For assay [2], the system named is P388. In words: Cytotoxicity against mouse P388 cells. In kind it is functional, cell-based.
Assay [3] relates to CHO. Nature of the assay: Cytotoxicity against CHO cells. Conditions: Cricetulus griseus. In kind it is cell-based, Cavia porcellus.
The test system of a further assay is L1210. Nature of the assay: Cytotoxicity against mouse L1210 cells. In kind it is functional, cell-based.
Assay [4] concerns CHO. Nature of the assay: Cytotoxicity against MDR1 gene transfected CHO cells. In kind it is ADME, cell-based, Cavia porcellus. Conditions: Cricetulus griseus.

In general, IC50 refers to the concentration that inhibits the measured activity by half. A low value points to greater potency. `COc1cccc2c1C(=O)c1c(O)c3c(c(O)c1C2=O)C[C@@](O)(C(=O)CO)C[C@@H]3O[C@H]1C[C@H](N)[C@H](O)[C@H](C)O1` [DOXORUBICIN]: the IC50 in the assay with P388 [1] came to 0.55 µg/mL (≈ 1.01 µM); in the assay with P388 [2] it was 0.09 µg/mL (≈ 0.166 µM); in the assay with CHO [3], 0.01 µg/mL (≈ 0.0184 µM); in the assay on L1210, 0.09 µg/mL (≈ 0.166 µM); in the assay with CHO [4], 0.11 µg/mL (≈ 0.202 µM).

The values above are taken from ChEMBL document CHEMBL1146440, “Brasilidine A, a new cytotoxic isonitrile-containing indole alkaloid from the actinomycete Nocardia brasiliensis” (J Nat Prod, 1997).
